# According to paper PMC4541002, “Quantification of Niacin and Its Metabolite Nicotinuric Acid in Human Plasma by LC-MS/MS: Application to a Clinical Trial of a Fixed Dose Combination Tablet of Niacin Extended-Release/Simvastatin (500 mg/10 mg) in Healthy Chinese Volunteers” (International Journal of Analytical Chemistry, 2015):
# Read-outs that look alike come from different tables or passages of the source.
# How the values were obtained:
# [1] = Pharmacokinetics of NA and NUA in plasma after single oral doses of Niacin extended-release/Simvastatin tablets in healthy Chinese volunteers; type: in vivo; conditions: for CLz/F: human plasma; for AUC(0-t) / AUC(0-inf) / Tmax / half-life / Cmax / k el / MRT last / Vd/F: both sexes, human, po; for k el: n = 12, read-out: K e (converted); for MRT last: n = 12, read-out: MRT0–t; for Vd/F: n = 12, read-out: V z/F
# Procedure: Extraction of NA and NUA was carried out by protein precipitation. First, 50 μL of the IS working solution (1000 ng/mL 5-FU) and 50 μL of water were added to a 100 μL aliquot of human plasma. The sample mixture was then deproteinized with 250 μL of acetonitrile, and the precipitate was removed by centrifugation at 15000 rpm for 10 min. The supernatant was transferred to another tube and evaporated under a gentle stream of nitrogen at 40°C until it is dry. The residue was reconstituted in 150 μL mobile phase and vortex-mixed for 30 sec. An aliquot of 40 μL of the solution was injected into the LC-MS/MS system for analysis.
# Before conducting the study all subjects provided written informed consent to participate. The study was designed as randomized, open-label, crossover, and single dose periods with a 7-day washout between each treatment. A total of 12 healthy Chinese volunteers (6 males and 6 females) aged 20 to 35 years with a body mass index between 19 and 24 kg/m^2 were recruited. Subjects were randomized into three groups (2 males and 2 females for each treatment). They were orally dosed with Niacin extended-release/Simvastatin 1, 2, and 3 tablets once daily, separately. The venous blood samples were collected at time intervals (0, 0.33, 0.66, 1.0, 1.5, 2.0, 2.5, 3.0, 3.5, 4.0, 5.0, 6.0, 8.0, 12, and 24 h) in separate vacutainers during the treatment. All blood samples were centrifuged at 3000 ×g for 10 min and the plasma was separated and kept frozen at −20°C until analysis.
# The pharmacokinetic parameters were calculated with data analysis system (DAS) program (version 2.0, Mathematical Pharmacology Professional Committee, Shanghai, China). The maximum plasma concentration (C max) and the corresponding time (T max) were obtained from observed data. The terminal elimination rate constant (K e) was estimated with least-squares regression of values in the terminal log-linear region of plasma concentration-time curves, and the terminal elimination half-life (t 1/2) was calculated to be 0.693/K e. The area under the curve from time zero to the last sampling time (AUC0−t) was determined using the linear trapezoidal rule.
# [2] = Stability of stock solutions of NA and NUA; type: physicochemical
# Procedure: Two separate stock solutions of the analytes were prepared at 1 mg/mL in methanol-water (50 : 50, v/v) and stored at −20°C. A series of standard working solutions for NA and NUA were prepared by diluting stock solution with methanol-water (50 : 50, v/v). The 5-FU solution was brought to a final concentration of 1000 ng/mL in acetonitrile from 1 mg/mL in acetonitrile. All working solutions were stored at 4°C and brought to room temperature before use. Calibration standards and quality control samples were prepared by spiking 50 μL of the working solutions and 50 μL of IS into 100 μL of drug-free human plasma. Matrix-matched NA and NUA calibration standards were prepared in plasma at concentrations of 5, 10, 20, 60, 200, 600, and 800 ng/mL, respectively. Similarly, NA and NUA quality control (QC) samples were prepared separately in plasma to give concentrations of 10, 60, and 600 ng/mL.
# [3] = for Found C / Found R.E.: n = 3; for stability in human plasma: variety of storage and process conditions (Tables 2 and 3)
# Procedure: The following stability tests were evaluated: (1) stability of the stock solutions of the analytes; (2) freeze and thaw stability of the analytes in the plasma from −20°C to room temperature for three cycles; (3) short-term stability of the analytes in plasma at room temperature before extraction for 3 h and the ready-to-inject samples (after extraction, in the mobile phase) to the autosampler rack for 4 h; and (4) long-term stability of the analytes in matrix stored at −20°C for two months. All stability tests samples at three concentration levels (10, 60, and 600 ng/mL) were analyzed in triplicate and the deviations were determined in relation to freshly prepared samples.
# [4] = 1 tablet (500 mg/10 mg), mean ± S.D., n = 12
# [5] = 2 tablets (1000 mg/20 mg), mean ± S.D., n = 12
# [6] = 3 tablets (1500 mg/30 mg), mean ± S.D., n = 12
# [7] = plasma, 1 tablet (500 mg/10 mg), mean ± S.D., n = 12
# [8] = plasma, 1 tablet (500 mg/10 mg), mean ± S.D.
# [9] = plasma, 2 tablets (1000 mg/20 mg), mean ± S.D., n = 12
# [10] = plasma, 2 tablets (1000 mg/20 mg), mean ± S.D.
# [11] = plasma, 3 tablets (1500 mg/30 mg), mean ± S.D., n = 12
# [12] = plasma, 3 tablets (1500 mg/30 mg), mean ± S.D.
# [13] = seven days at −20°C versus before
# [14] = six h at room temperature versus before
# [15] = extracted plasma sample in mobile phase, autosampler for 4 h (24°C), added 10.0 ng/mL
# [16] = extracted plasma sample in mobile phase, autosampler for 4 h (24°C), added 60.0 ng/mL
# [17] = extracted plasma sample in mobile phase, autosampler for 4 h (24°C), added 600.0 ng/mL
# [18] = human plasma, long-term (2 months at −20°C), added 10.0 ng/mL
# [19] = human plasma, long-term (2 months at −20°C), added 60.0 ng/mL
# [20] = human plasma, long-term (2 months at −20°C), added 600.0 ng/mL
# [21] = human plasma, short-term (3 h at 24°C), added 10.0 ng/mL
# [22] = human plasma, short-term (3 h at 24°C), added 60.0 ng/mL
# [23] = human plasma, short-term (3 h at 24°C), added 600.0 ng/mL
# [24] = human plasma, three freeze/thaw cycles, added 10.0 ng/mL
# [25] = human plasma, three freeze/thaw cycles, added 60.0 ng/mL
# [26] = human plasma, three freeze/thaw cycles, added 600.0 ng/mL
# [27] = in vivo, 1 tablet (500 mg/10 mg), mean ± S.D., n = 12
# [28] = in vivo, 1 tablet (500 mg/10 mg), mean ± S.D.
# [29] = in vivo, 2 tablets (1000 mg/20 mg), mean ± S.D., n = 12
# [30] = in vivo, 2 tablets (1000 mg/20 mg), mean ± S.D.
# [31] = in vivo, 3 tablets (1500 mg/30 mg), mean ± S.D., n = 12
# [32] = in vivo, 3 tablets (1500 mg/30 mg), mean ± S.D.
smiles,measurement,setting,value
"O=C(O)c1cccnc1 [NA, 3-pyridine-carboxylic acid]",CLz/F,[1]; [4],1271 ± 850.0 L/h
same,CLz/F,[1]; [5],744.0 ± 356.0 L/h
same,CLz/F,[1]; [6],526.0 ± 421.0 L/h
same,AUC(0-t),"[1]; plasma, 1 tablet",349 ± 192 ng·h/mL
same,AUC(0-inf),[1]; [7],518 ± 226 ng·h/mL
same,AUC(0-t),[1]; [7],385 ± 192 ng·h/mL
same,Tmax,[1]; [7],2.94 ± 2.63 h
same,half-life,[1]; [7],8.8 ± 8.49 h
same,Cmax,"[1]; plasma, 1 tablet (500 mg/10 mg), mean ± S.D., n = 12, read-out: C max",160 ± 125 ng/mL
same,k el,[1]; [8],5.28e-05 s⁻¹
same,MRT last,[1]; [8],5.37 ± 1.96 h
same,Vd/F,[1]; [8],13700 ± 11600 L
same,Cmax,"[1]; plasma, 1 tablet, read-out: mean maximum plasma concentration (C max)",160 ± 125 ng/mL
same,AUC(0-t),"[1]; plasma, 2 tablets",1540 ± 957 ng·h/mL
same,AUC(0-inf),[1]; [9],1720 ± 923 ng·h/mL
same,AUC(0-t),[1]; [9],1540 ± 957 ng·h/mL
same,Tmax,[1]; [9],1.82 ± 1.69 h
same,half-life,[1]; [9],7.33 ± 8.68 h
same,Cmax,"[1]; plasma, 2 tablets (1000 mg/20 mg), mean ± S.D., n = 12, read-out: C max",904 ± 487 ng/mL
same,k el,[1]; [10],0.000119 s⁻¹
same,MRT last,[1]; [10],4.4 ± 2.21 h
same,Vd/F,[1]; [10],7650 ± 9320 L
same,Cmax,"[1]; plasma, 2 tablets, read-out: C max",904 ± 487 ng/mL
same,AUC(0-t),"[1]; plasma, 3 tablets",6020 ± 6580 ng·h/mL
same,AUC(0-inf),[1]; [11],6100 ± 6550 ng·h/mL
same,AUC(0-t),[1]; [11],6020 ± 6580 ng·h/mL
same,Tmax,[1]; [11],2.42 ± 1.64 h
same,half-life,[1]; [11],5.4 ± 4.57 h
same,Cmax,"[1]; plasma, 3 tablets (1500 mg/30 mg), mean ± S.D., n = 12, read-out: C max",2480 ± 1430 ng/mL
same,k el,[1]; [12],7.5e-05 s⁻¹
same,MRT last,[1]; [12],3.65 ± 1.33 h
same,Vd/F,[1]; [12],5200 ± 6650 L
same,Cmax,"[1]; plasma, 3 tablets, read-out: C max",2480 ± 1430 ng/mL
same,"R.E.% of response, stock solution stability",[2]; [13],−5.8%
same,"R.E.% of response, stock solution stability",[2]; [14],−1.1%
same,Found C,[3]; [15],9.6 ng/mL
same,Found R.E.,[3]; [15],−3.7%
same,Found C,[3]; [16],62.7 ng/mL
same,Found R.E.,[3]; [16],4.5%
same,Found C,[3]; [17],578.3 ng/mL
same,Found R.E.,[3]; [17],−3.6%
same,Found C,[3]; [18],9.6 ng/mL
same,Found R.E.,[3]; [18],−4.1%
same,Found C,[3]; [19],53.7 ng/mL
same,Found R.E.,[3]; [19],−10.6%
same,Found C,[3]; [20],595.3 ng/mL
same,Found R.E.,[3]; [20],−0.8%
same,Found C,[3]; [21],9.1 ng/mL
same,Found R.E.,[3]; [21],−8.9%
same,Found C,[3]; [22],58.8 ng/mL
same,Found R.E.,[3]; [22],−2.1%
same,Found C,[3]; [23],636.3 ng/mL
same,Found R.E.,[3]; [23],6.0%
same,Found C,[3]; [24],9.5 ng/mL
same,Found R.E.,[3]; [24],−4.6%
same,Found C,[3]; [25],58.0 ng/mL
same,Found R.E.,[3]; [25],−3.28%
same,Found C,[3]; [26],546.3 ng/mL
same,Found R.E.,[3]; [26],−9.0%
same,stability in human plasma,[3],did not reveal any significant degradation
"O=C(O)CNC(=O)c1cccnc1 [NUA, nicotinuric acid]",CLz/F,[1]; [4],287.8 ± 128.2 L/h
same,CLz/F,[1]; [5],224.8 ± 91.90 L/h
same,CLz/F,[1]; [6],189.3 ± 94.20 L/h
same,AUC(0-t),"[1]; in vivo, 1 tablet",2150 ± 1360 ng·h/mL
same,AUC(0-inf),[1]; [27],2180 ± 1370 ng·h/mL
same,AUC(0-t),[1]; [27],2150 ± 1360 ng·h/mL
same,Tmax,[1]; [27],2.06 ± 1.6 h
same,half-life,[1]; [27],1.7 ± 0.801 h
same,Cmax,"[1]; in vivo, 1 tablet (500 mg/10 mg), mean ± S.D., n = 12, read-out: C max",836 ± 399 ng/mL
same,k el,[1]; [28],0.000147 s⁻¹
same,MRT last,[1]; [28],2.91 ± 0.74 h
same,Vd/F,[1]; [28],649 ± 338 L
same,Cmax,"[1]; in vivo, 1 tablet, read-out: mean maximum plasma concentration (C max)",836 ± 399 ng/mL
same,AUC(0-t),"[1]; in vivo, 2 tablets",5400 ± 3220 ng·h/mL
same,AUC(0-inf),[1]; [29],5480 ± 3250 ng·h/mL
same,AUC(0-t),[1]; [29],5400 ± 3220 ng·h/mL
same,Tmax,[1]; [29],3.03 ± 2.19 h
same,half-life,[1]; [29],2.55 ± 1.26 h
same,Cmax,"[1]; in vivo, 2 tablets (1000 mg/20 mg), mean ± S.D., n = 12, read-out: C max",1630 ± 636 ng/mL
same,k el,[1]; [30],9.17e-05 s⁻¹
same,MRT last,[1]; [30],3.6 ± 1.32 h
same,Vd/F,[1]; [30],821 ± 523 L
same,Cmax,"[1]; in vivo, 2 tablets, read-out: C max",1630 ± 636 ng/mL
same,AUC(0-t),"[1]; in vivo, 3 tablets",10200 ± 7080 ng·h/mL
same,AUC(0-inf),[1]; [31],10200 ± 7090 ng·h/mL
same,AUC(0-t),[1]; [31],10200 ± 7080 ng·h/mL
same,Tmax,[1]; [31],2.33 ± 1.05 h
same,half-life,[1]; [31],2.72 ± 1.83 h
same,Cmax,"[1]; in vivo, 3 tablets (1500 mg/30 mg), mean ± S.D., n = 12, read-out: C max",2790 ± 1040 ng/mL
same,k el,[1]; [32],9.17e-05 s⁻¹
same,MRT last,[1]; [32],3.79 ± 1.11 h
same,Vd/F,[1]; [32],696 ± 458 L
same,Cmax,"[1]; in vivo, 3 tablets, read-out: C max",2790 ± 1040 ng/mL
same,"R.E.% of response, stock solution stability",[2]; [13],−1.6%
same,"R.E.% of response, stock solution stability",[2]; [14],0.8%
same,Found C,[3]; [15],10.7 ng/mL
same,Found R.E.,[3]; [15],7.3%
same,Found C,[3]; [16],67.0 ng/mL
same,Found R.E.,[3]; [16],11.7%
same,Found C,[3]; [17],598.3 ng/mL
same,Found R.E.,[3]; [17],−0.3%
same,Found C,[3]; [18],10.6 ng/mL
same,Found R.E.,[3]; [18],6.4%
same,Found C,[3]; [19],59.1 ng/mL
same,Found R.E.,[3]; [19],−1.5%
same,Found C,[3]; [20],579.3 ng/mL
same,Found R.E.,[3]; [20],−3.4%
same,Found C,[3]; [21],11.0 ng/mL
same,Found R.E.,[3]; [21],9.7%
same,Found C,[3]; [22],63.6 ng/mL
same,Found R.E.,[3]; [22],5.9%
same,Found C,[3]; [23],628.7 ng/mL
same,Found R.E.,[3]; [23],4.8%
same,Found C,[3]; [24],10.8 ng/mL
same,Found R.E.,[3]; [24],8.3%
same,Found C,[3]; [25],63.3 ng/mL
same,Found R.E.,[3]; [25],5.6%
same,Found C,[3]; [26],618.3 ng/mL
same,Found R.E.,[3]; [26],3.1%
same,stability in human plasma,[3],did not reveal any significant degradation
